System: microorganism consortium in the subterranean formation
Procedure: Field tests were conducted on a mature coal-bed methane natural gas well in the Powder River Basin region in Wyoming. […] Total injection volume was 975,450 gallons of formation water, as well as 575.7 lbs. of sodium acetate trihydrate and 2404.7 lbs. of anhydrous sodium acetate. The effective average concentration of acetate in the injection water was 4.06 mM. In the pretreatment period, well 23M-2283 was used to access a microorganism consortium in the subterranean formation and obtain samples for microorganism population analysis.

CC(=O)[O-].[Na+] [acetate amendment, sodium acetate]
total microbial population density (after acetate amendment introduced in situ (effective average 4.06 mM acetate in injection water), pretreatment 4.2×10^4 cells/ml): 1.5×10^6 cells/ml | acetoclastic methanogens as share of total archaea population (at some points during natural gas recovery operations following the two-week period): ~100% | acetoclastic methanogens as share of total archaea (two weeks after introduction of the amendment, pretreatment ~20%): greater than 90% | hydrogenotrophic methanogens as share of total archaea (two weeks after introduction of the amendment, pretreatment ~80%): less than 10%

From patent US9004162B2, “Methods of stimulating acetoclastic methanogenesis in subterranean deposits of carbonaceous material” (Transworld Technologies Inc., priority 2012, dated 2015)
